Test results published in patent publication US20230302022A1, “PREVENTING OR MITIGATING CHEMOTHERAPY INDUCED ALOPECIA USING VITAMIN D” (priority 2016, published 2023).

How the values were obtained:
[1] = system: patients; assay: Phase I study: chemotherapy-induced alopecia in patients; format: in vivo, human; settings: patients at all dose levels, weeks 7 and 15 vs baseline
Excerpt: Photographic assessment will be performed using a Canon Power Shot G12 camera system to ensure standardization and uniformity among all enrolled patients. The following five views will be obtained at each photographic assessment: bilateral sides of head/scalp view, front of head/face view, back of head/scalp view, and top of head/scalp view. Additionally, close-up photographs will be taken at the same times points. […] Photographs will be standardized for lighting, camera angle, and position to the participants head. These assessments will be performed at the following time points: at baseline, weeks 7, 15, 27, and 54. Photographs for patients in each cohort representing baseline, and treatment weeks 7 and 15 will be presented blind to the study principle investigator after at least 3 patients have completed 15 weeks of treatment. Photographs will also be taken at week 27 and week 54 of the study but will be included in the final photographic assessment as secondary information. […]
Subjective record of hair and scalp. Alopecia will also be subjectively recorded through the patient self-reported diaries. […]
Each patient underwent PK analysis, adverse event monitoring, patient self-assessment diaries (1-10 scale), and blinded photographic assessments. […] Toxicity was determined on a weekly basis during Cycle 1 (i.e., the first 28 days of topical agent application) and subsequently every four weeks. […]

[2] = Chemical stability; format: physicochemical
[3] = system: HEKa cells; assay: Real-time PCR Neuroscience Ion Channels and Transporters array, calcitriol-treated HEKa cells; format: cell-based, human; settings: 0.1 μg/mL calcitriol, three independent experiments; for KCNB2 mRNA Regulation Pattern: until 24 hours
Method: The PCR array analysis utilized two groups of genes—those related to Heat Shock Proteins (SABiosciences), and those related to Neuroscience Ion Channels and Transporters (SABioscience). Cell culture: Primary human epidermal keratinocytes (HEKa) were maintained in Epilife Medium (Cascade Biologics, Inc., Portland OR) along with Human Keratinocyte Growth Supplement (Cascade Biologics, Inc., Portland OR). […] D3 treatment of HEKa cells: […] Vehicle control group of cells were treated with 5 mL media containing 1 μL of ethanol. Cells were harvested 3, 6, 16, 24, 48, or 72 hours after the start of the treatment. RNA isolation: Cells were lysed for RNA isolation at different treatment times using the RNeasy Mini kit (Qiagen, Inc., Valencia CA) following the manufacturer's instructions. RNA was quantified by measuring optical density at 260 nm. First Strand Synthesis: […] Real-time PCR: Products from the first strand synthesis were diluted with water, mixed with the SYBR green master mix (SABiosciences., Frederick MD) and loaded onto PCR arrays. Real time PCR was run on the PCR Arrays (Heat Shock Protein Arrays, and Neuroscience and Ion Channel Arrays) (SABiosciences, Frederick MD) on a Biorad CFX96. Data analyses were performed using the PCR array data analysis software available on the SABiosciences website.

[4] = system: SKMEL-28 (melanoma); assay: Cell growth / viability assay, SKMEL-28; format: cell-based
Method: The drug treatment period was usually three days. At the end of the three days, the background OD of the 96-well plate was read at 280 nm, before 20 μL of the “Substrate Cell Titer 96 Aqueous One Solution Reagent” (Promega) was added to each well. […] The net OD increase was calculated by subtracting the pre-substrate OD reading. The impact of the drug on the cells was calculated by comparing the OD at different concentrations in relation to the OD of the control wells (without the drug). The results of the Net OD as a function of drug concentration was plotted and used to determine ED50 values.

[5] = Quantification of calcitriol in ex vivo porcine skin layers after 7 days of dermal administration; settings: for Stratum Corneum, Calcitriol Recovered: 10 μg/mL, mean ± SD
Method: The placebo and test articles were administered dermally twice daily approximately 6 hours apart for 7 days during the study. The dose concentrations were 0, 1, 3, 10, 30, and 100 μg/mL, and administered at an application rate of 4 mg/cm^2 (equivalent to 144 mg or 166 μL of test solution). Prior to initiation of administration (Days −4 and −5 for Groups 1 and 2, respectively), the hair was clipped from the application sites using an electric clipper. Care was taken to avoid abrading the skin. The dorsal surface of each animal was divided into five application sites for Group 1 and two application sites for Group 2. Each application site was approximately 6×6 cm with at least a 2 cm space between each site. The placebo and test article formulations were uniformly applied over the specified application site with a glass stirring rod or appropriate instrument. Prior to dosing, the residual test article from the previous dose was gently removed using a soft paper towel (i.e., WyPall®) moistened with tap water.
At the end of the study, the skin was reflected from a ventral midline incision, and sections of treated and untreated skin were collected and preserved. Sections of each 6×6 cm dosing site were first thoroughly surface washed with a mild soap and water mixture (e.g., 1% Ivory Soap in water or equivalent) to remove any residual topical test formulation. The washed skin sections were then wiped clean with ethanol, and were excised down to and including the adipose layer. If the area to be excised is larger than the dosed area, the dosed area was demarked with indelible ink to delineate the skin area that was dosed. The 1.5 cm×1.5 cm sections were laid flat, wrapped in two layers of Saran wrap (or equivalent) and flash frozen in liquid nitrogen. The samples were stored at −70° C. and shipped on dry ice via overnight courier for analysis. Each skin section was identified as appropriate (e.g., animal identification, study number, date, etc.).
Upon arrival at the analysis site, skin sections were placed in water tight plastic bag and thawed by emersion in warm water (˜30° C.-35° C.). Each skin section was gently rinsed with distilled de-ionized water to remove any residual test article and blood. All subcutaneous tissue (e.g., adipose) was removed by manual scalpel ablation. Within the central region of the dosed area, four individual 1 cm^2 circles (replicates) were demarked, and each site was subsequently identified and the actual area recorded. […] The skin sections were weighed and the weight recorded. […]
Following tape stripping, the skin was separated into epidermis (sans stratum corneum, simply referred to herein after as “epidermis”) and dermis by heat exposure to 60° C. for approximately 1-1.5 minutes. […] The epidermis and dermis were weighed and the weight recorded. […]

C=C1/C(=C\C=C2/CCC[C@]3(C)[C@@H]([C@H](C)CCCC(C)(C)O)CC[C@@H]23)C[C@@H](O)C[C@@H]1O [Calcitriol, (5Z,7E)-9,10-secocholesta-5,7.10(19Hriene-1 a,33.25-triol]
chemotherapy induced alopecia [1]: diminished chemotherapy induced alopecia
Chemical Stability [2]: Stable at room temperature
SLC1A1 mRNA Regulation Pattern ([3]; at 16 hrs): upregulated at
KCNN4 mRNA Regulation Pattern ([3]; at 48 hours): upregulated at 48
KCNB2 mRNA Regulation Pattern [3]: upregulated
KCNB2 mRNA Regulation Pattern ([3]; listed as Vitamin D3): upregulated until
effect of calcitriol on cell growth ([4]; SKMEL-28): no significant growth promoting or growth inhibiting effects
effect of calcitriol on the cytotoxic effect of Doxorubicin ([4]; SKMEL-28): did not appear to appreciably alter
5-FU ED50 curve with vs without calcitriol ([4]; SKMEL-28, 0.1 μg/mL calcitriol): not significantly different
skin layers in which calcitriol was measurable ([5]; 1-100 μg/mL, exception: dermis at 100 μg/mL in a single male minipig): measurable in most stratum corneum and epidermal samples, but not in the dermal samples
applied dose correlation to epidermal tissue level ([5]; 3 to 100 μg/mL applications): near linear increase
Stratum Corneum, Calcitriol Recovered ([5]; Female Minipigs): 1.65 ± 1.80 (3) ng/cm^2
Stratum Corneum, Calcitriol Recovered ([5]; Male Minipigs): 59.6 ± 14.1 (3) ng/cm^2
